Source: patent US8673347B2 (Creabilis Therapeutics S.p.A., priority 2005, dated 2014)

Key:
JNK1 = JNK1 (Homo sapiens, UniProt P45983); experiment: Kinase inhibition profile; format: biochemical; conditions: 200 nM; read-out: inhibitory activity
Description: (§1) The preparation of CT327 and the reference compounds was conducted following a similar procedure. CT327 also was tested at a concentration of 200 nM.
(§2) The inhibitory activity of CT327 against the tested tyrosine kinase and serine/threonine kinases is shown in the Table a and b, respectively, reported in FIG. 9b.

JNK2 = JNK2 (Homo sapiens, UniProt P45984); experiment: Kinase inhibition profile; format: biochemical; conditions: 200 nM; read-out: inhibitory activity
Description: as §1, §2

JAK2 = JAK2 (Homo sapiens, UniProt O60674); experiment: Kinase inhibition profile; format: biochemical; conditions: 200 nM; read-out: inhibitory activity
Description: as §1, §2

MET = MET (Homo sapiens, UniProt P08581); experiment: Kinase inhibition profile; format: biochemical; conditions: 200 nM; read-out: inhibitory activity
Description: as §1, §2

TNK1 = TNK1 (Homo sapiens, UniProt Q13470); experiment: Kinase inhibition profile; format: biochemical; conditions: 200 nM; read-out: inhibitory activity
Description: as §1, §2

JAK1 = JAK1 (Homo sapiens, UniProt P23458); experiment: Kinase inhibition profile; format: biochemical; conditions: 200 nM; read-out: inhibitory activity
Description: as §1, §2

CaMK2a = CaMK2a (Homo sapiens, UniProt Q9UQM7); experiment: Kinase inhibition profile; format: biochemical; conditions: 200 nM; read-out: inhibitory activity
Description: as §1, §2

MER = MER (Homo sapiens, UniProt Q12866); experiment: Kinase inhibition profile; format: biochemical; conditions: 200 nM; read-out: inhibitory activity
Description: as §1, §2

TYK2 = TYK2 (Homo sapiens, UniProt P29597); experiment: Kinase inhibition profile; format: biochemical; conditions: 200 nM; read-out: inhibitory activity
Description: as §1, §2

BLK = BLK (Homo sapiens, UniProt P51451); experiment: Kinase inhibition profile; format: biochemical; conditions: 200 nM; read-out: inhibitory activity
Description: as §1, §2

PDGFRβ = PDGFRβ (Homo sapiens, UniProt P09619); experiment: Kinase inhibition profile; format: biochemical; conditions: 200 nM; read-out: inhibitory activity
Description: as §1, §2

FGR = FGR (Homo sapiens, UniProt P09769); experiment: Kinase inhibition profile; format: biochemical; conditions: 200 nM; read-out: inhibitory activity
Description: as §1, §2

CHK2 = CHK2 (Homo sapiens, UniProt O96017); experiment: Kinase inhibition profile; format: biochemical; conditions: 200 nM; read-out: inhibitory activity
Description: as §1, §2

PDGFRα = PDGFRα (Homo sapiens, UniProt P16234); experiment: Kinase inhibition profile; format: biochemical; conditions: 200 nM; read-out: inhibitory activity
Description: as §1, §2

CHK1 = CHK1 (Homo sapiens, UniProt O14757); experiment: Kinase inhibition profile; format: biochemical; conditions: 200 nM; read-out: inhibitory activity
Description: as §1, §2

AurA = AurA (Homo sapiens, UniProt O14965); experiment: Kinase inhibition profile; format: biochemical; conditions: 200 nM; read-out: inhibitory activity
Description: as §1, §2

JAK3 = JAK3 (Homo sapiens, UniProt P52333); experiment: Kinase inhibition profile; format: biochemical; conditions: 200 nM; read-out: inhibitory activity
Description: as §1, §2

TrkC = TrkC (Homo sapiens, UniProt Q16288); experiment: Kinase inhibition profile; format: biochemical; conditions: 200 nM; read-out: inhibitory activity
Description: as §1, §2

LPS-induced endotoxemia = experiment: Plasma cytokines in mice after LPS-induced endotoxemia; format: in vivo; conditions: parallel experiment, treated before LPS; versus vehicle
Description: A study was performed with the purpose to quantitatively determine a panel of 24 cytokines in the plasma of mice at different time points after LPS-induced endotoxemia and to compare the profiles obtained with those of CT327 pre-treated endotoxemic mice.
The animals were divided into two experimental groups (55 mice/group) that were treated following this schedule:
At time 0 both groups received a dose of LPS corresponding to 4 mg/kg, i.p.
The “treated” experimental group received a single dose of CT327 corresponding to 105.56 mg/kg, i.p. This dose was administered 15 minutes before LPS endotoxemia induction (time 0). At the same time the “control” group received an equivalent volume of vehicle solution.
Each experimental group was divided into 11 sub-groups with 5 mice/sub-group. Each sub-group was sacrificed at different time points and blood samples collected.
Time points for blood sample collection were: • Time: time 0 (basal); before LPS treatment • Time: +30 minutes; after LPS treatment • Time: +1 hours; after LPS treatment • Time: +2 hours; after LPS treatment • Time: +3 hours; after LPS treatment • Time: +6 hours; after LPS treatment • Time: +12 hours; after LPS treatment • Time: +18 hours; after LPS treatment • Time: +24 hours; after LPS treatment • Time: +48 hours; after LPS treatment • Time: +72 hours; after LPS treatment
Blood samples were collected in sodium citrate tubes (100 μl sodium citrate 0.1 M/900 μl of blood) and centrifuged at 1000 g at 4° C. for 10 minutes. Plasma samples were collected and 50 μl/sample were frozen at −80° C. until testing for multiple cytokines profiling. The samples were analyzed in double through the Bio-Plex System (Bio-Rad) by using the 23-plex panel at the Dept. of Genetics, Biology and Biochemistry, Torino University, led by Prof. Silengo. Plasma levels of the following cytokines were determined: IL-1a, IL-1b, IL-2, IL-3, IL-4, IL-5, IL-6, IL-10, IL-12(p40), IL-12(p70), IL-17, G-CSF, GM-CSF, IFN-γ, KC, MIP-1-α, RANTES, TNF-α, IL-9, IL-13, eotaxin, MCP-1, MIP-1-α.

[1] = tested on: transplanted psoriatic plaques; conditions: 2 weeks of therapy, double-blinded, placebo-controlled; cited from earlier work
protein kinase C (PKC) = conditions: cited from earlier work

CHK1, sequence (O14757 whole entry, species assumed): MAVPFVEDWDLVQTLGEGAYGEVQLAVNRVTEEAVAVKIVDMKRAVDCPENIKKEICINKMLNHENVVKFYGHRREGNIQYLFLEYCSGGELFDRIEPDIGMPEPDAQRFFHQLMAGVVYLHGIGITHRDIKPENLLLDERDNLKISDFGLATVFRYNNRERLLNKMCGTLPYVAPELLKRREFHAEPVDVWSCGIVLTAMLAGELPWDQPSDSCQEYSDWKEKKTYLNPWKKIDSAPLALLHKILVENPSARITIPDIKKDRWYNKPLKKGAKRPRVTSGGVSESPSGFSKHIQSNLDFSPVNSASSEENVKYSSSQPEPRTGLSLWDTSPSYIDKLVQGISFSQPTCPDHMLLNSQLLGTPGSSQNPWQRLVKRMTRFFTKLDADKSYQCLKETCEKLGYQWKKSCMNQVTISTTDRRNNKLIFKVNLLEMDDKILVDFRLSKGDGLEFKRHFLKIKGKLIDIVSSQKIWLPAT
BLK, sequence (P51451 whole entry, species assumed): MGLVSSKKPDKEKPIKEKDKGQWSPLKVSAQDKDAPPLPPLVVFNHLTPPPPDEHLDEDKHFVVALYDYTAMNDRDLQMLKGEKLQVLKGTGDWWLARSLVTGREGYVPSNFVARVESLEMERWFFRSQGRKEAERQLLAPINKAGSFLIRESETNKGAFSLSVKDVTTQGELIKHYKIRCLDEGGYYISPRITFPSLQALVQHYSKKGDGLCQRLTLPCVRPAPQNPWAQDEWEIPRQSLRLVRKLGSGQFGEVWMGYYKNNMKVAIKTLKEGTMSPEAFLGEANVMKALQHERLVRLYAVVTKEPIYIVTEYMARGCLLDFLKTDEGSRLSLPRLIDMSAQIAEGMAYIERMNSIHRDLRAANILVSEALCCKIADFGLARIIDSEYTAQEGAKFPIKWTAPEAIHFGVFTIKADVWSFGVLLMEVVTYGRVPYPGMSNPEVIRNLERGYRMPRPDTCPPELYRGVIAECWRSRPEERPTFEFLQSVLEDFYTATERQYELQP
CaMK2a, sequence (Q9UQM7 whole entry): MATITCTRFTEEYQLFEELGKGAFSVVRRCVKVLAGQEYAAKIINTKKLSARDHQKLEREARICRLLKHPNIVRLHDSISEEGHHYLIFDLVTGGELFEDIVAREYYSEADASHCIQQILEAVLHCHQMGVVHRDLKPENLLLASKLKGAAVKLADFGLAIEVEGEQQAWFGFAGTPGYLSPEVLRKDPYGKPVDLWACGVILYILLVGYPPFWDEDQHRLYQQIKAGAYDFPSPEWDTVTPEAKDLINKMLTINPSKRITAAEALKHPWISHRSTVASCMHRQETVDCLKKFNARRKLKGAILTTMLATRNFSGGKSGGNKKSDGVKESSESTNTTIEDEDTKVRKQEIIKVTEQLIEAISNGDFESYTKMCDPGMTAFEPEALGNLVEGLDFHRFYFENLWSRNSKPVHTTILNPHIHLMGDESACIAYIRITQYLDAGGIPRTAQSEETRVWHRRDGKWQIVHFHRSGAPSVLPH
JNK1, sequence (P45983 whole entry, species assumed): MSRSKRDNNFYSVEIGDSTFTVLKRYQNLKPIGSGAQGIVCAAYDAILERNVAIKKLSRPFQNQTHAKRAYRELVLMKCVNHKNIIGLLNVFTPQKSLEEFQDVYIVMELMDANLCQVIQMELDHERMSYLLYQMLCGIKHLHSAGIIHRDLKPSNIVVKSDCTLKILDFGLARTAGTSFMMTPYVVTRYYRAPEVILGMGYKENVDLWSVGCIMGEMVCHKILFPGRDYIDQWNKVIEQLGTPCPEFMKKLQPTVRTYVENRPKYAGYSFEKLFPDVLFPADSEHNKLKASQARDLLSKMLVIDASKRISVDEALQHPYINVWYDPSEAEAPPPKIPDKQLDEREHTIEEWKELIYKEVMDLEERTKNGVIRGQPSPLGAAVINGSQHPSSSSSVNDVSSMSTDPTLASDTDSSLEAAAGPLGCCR
MET, sequence (P08581 25-1390): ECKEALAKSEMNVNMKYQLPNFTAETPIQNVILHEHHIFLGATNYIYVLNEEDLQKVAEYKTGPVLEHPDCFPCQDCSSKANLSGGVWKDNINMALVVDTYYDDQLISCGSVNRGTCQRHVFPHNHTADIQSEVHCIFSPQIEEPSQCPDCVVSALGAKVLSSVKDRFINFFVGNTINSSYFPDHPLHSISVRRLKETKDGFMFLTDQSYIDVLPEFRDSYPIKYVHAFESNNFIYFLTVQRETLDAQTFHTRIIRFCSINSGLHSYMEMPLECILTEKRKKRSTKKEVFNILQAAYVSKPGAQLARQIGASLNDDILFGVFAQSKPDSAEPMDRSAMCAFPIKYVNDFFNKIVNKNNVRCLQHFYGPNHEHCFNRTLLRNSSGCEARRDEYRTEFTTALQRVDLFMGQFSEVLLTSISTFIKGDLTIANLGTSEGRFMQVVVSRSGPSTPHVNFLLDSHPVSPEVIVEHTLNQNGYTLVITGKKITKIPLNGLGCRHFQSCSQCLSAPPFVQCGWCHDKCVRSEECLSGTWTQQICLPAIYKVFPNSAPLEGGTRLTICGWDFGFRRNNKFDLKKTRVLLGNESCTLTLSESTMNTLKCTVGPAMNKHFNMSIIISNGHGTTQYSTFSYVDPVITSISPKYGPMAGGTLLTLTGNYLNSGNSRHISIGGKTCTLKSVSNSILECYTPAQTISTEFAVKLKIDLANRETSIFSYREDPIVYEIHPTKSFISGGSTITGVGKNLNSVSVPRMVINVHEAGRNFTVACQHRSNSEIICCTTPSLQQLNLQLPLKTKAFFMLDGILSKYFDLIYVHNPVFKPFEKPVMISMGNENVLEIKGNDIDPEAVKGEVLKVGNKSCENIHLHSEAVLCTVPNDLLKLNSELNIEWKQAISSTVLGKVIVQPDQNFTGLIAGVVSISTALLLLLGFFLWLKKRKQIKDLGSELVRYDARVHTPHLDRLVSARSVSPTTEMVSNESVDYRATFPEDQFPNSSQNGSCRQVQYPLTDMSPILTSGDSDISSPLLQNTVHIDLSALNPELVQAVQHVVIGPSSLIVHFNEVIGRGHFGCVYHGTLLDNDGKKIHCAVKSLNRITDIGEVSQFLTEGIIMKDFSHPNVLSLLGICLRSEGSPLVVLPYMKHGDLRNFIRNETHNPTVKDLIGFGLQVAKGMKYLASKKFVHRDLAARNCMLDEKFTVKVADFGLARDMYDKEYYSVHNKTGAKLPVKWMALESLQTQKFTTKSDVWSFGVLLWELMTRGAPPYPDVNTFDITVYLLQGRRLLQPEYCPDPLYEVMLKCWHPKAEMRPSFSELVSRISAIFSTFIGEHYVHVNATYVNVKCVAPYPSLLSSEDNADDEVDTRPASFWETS
JAK3, sequence (P52333 whole entry, species assumed): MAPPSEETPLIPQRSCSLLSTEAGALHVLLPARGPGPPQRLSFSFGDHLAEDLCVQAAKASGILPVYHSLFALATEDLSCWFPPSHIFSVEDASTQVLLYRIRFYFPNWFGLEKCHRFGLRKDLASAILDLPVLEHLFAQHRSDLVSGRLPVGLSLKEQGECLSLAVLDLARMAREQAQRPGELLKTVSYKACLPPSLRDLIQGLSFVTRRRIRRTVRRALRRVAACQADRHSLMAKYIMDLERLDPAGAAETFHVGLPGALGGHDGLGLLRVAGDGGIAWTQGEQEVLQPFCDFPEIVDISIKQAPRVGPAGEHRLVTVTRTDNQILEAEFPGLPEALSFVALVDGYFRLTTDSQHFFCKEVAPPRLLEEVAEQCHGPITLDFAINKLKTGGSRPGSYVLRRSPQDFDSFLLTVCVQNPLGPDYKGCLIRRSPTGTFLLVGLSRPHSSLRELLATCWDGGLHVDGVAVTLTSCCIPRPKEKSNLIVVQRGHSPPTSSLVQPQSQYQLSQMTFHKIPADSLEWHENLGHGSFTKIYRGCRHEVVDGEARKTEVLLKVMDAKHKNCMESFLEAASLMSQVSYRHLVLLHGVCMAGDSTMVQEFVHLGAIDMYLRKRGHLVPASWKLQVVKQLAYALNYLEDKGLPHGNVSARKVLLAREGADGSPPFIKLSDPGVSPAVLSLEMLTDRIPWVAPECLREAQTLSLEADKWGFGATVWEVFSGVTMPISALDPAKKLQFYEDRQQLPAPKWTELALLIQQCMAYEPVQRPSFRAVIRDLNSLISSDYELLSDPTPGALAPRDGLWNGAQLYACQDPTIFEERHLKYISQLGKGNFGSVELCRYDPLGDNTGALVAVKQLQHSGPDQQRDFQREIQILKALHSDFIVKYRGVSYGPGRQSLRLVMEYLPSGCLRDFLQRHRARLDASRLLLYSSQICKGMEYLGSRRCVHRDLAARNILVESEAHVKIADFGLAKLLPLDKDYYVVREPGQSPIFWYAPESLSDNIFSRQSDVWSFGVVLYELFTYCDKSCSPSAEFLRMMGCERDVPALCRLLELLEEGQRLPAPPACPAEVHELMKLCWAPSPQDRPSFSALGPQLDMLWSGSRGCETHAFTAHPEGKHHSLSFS
TNK1, sequence (Q13470 whole entry, species assumed): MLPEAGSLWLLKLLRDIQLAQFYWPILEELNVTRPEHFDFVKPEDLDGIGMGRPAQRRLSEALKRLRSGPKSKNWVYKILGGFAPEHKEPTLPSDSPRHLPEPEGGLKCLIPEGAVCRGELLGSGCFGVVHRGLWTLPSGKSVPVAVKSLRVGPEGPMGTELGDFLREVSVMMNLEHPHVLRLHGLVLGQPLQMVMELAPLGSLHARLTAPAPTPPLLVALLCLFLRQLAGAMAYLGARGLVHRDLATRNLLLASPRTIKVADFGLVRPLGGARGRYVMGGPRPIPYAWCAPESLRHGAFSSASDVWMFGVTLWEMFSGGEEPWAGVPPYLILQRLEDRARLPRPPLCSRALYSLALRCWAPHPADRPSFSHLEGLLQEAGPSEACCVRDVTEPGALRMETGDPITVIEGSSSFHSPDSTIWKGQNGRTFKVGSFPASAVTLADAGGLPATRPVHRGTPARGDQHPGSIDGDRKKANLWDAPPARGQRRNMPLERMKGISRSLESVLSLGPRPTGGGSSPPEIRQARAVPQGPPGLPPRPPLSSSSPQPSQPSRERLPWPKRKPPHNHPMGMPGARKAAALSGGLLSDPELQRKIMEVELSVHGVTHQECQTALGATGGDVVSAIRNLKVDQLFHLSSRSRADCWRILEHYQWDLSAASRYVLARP

## COC(=O)[C@]1(O)C[C@@H]2O[C@@]1(C)n1c3ccccc3c3c4c(c5c6ccccc6n2c5c31)C(=O)NC4 [Compound K-252a, K-252a]
JNK1
  inhibition at 0.2 µM: > 90%
JNK2
  inhibition at 0.2 µM: > 90%
JAK2
  inhibition at 0.2 µM: > 90%
MET
  inhibition at 0.2 µM: 80 to 90%
TNK1
  inhibition at 0.2 µM: > 90%
JAK1
  inhibition at 0.2 µM: 80 to 90%
CaMK2a
  inhibition at 0.2 µM: 80 to 90%
MER
  inhibition at 0.2 µM: 80 to 90%
TYK2
  inhibition at 0.2 µM: > 90%
BLK
  inhibition at 0.2 µM: 80 to 90%
PDGFRβ
  inhibition at 0.2 µM: > 90%
FGR
  inhibition at 0.2 µM: 80 to 90%
CHK2
  inhibition at 0.2 µM: > 90%
PDGFRα
  inhibition at 0.2 µM: > 90%
CHK1
  inhibition at 0.2 µM: > 90%
AurA
  inhibition at 0.2 µM: > 90%
JAK3
  inhibition at 0.2 µM: > 90%
TrkC
  inhibition at 0.2 µM: > 90%
LPS-induced endotoxemia
  IFN-γ secretion in plasma: significant reduction
  MCP-1 secretion in plasma: significant reduction
  MIP-α secretion in plasma: significant reduction
  RANTES secretion in plasma: significant reduction
  TNF-α secretion in plasma: significant reduction
[1]
  psoriasis improvement: significantly improved
Protein kinase C (PKC)
  inhibition of protein kinase C: strongly inhibits
